Results reported in patent US20210040116A1, “New Polymorphs of Dolutegravir Sodium” (CIPLA LIMITED, priority 2017, published 2021).

Assays:
[1] = Bulk density and tapped density (USP <616> method I); type: physicochemical
Text: Suitable methods for determining the bulk density and tapped density of the crystalline form 1A of dolutegravir sodium of the present invention and the crystalline form of dolutegravir sodium form disclosed in WO2010068253 will be well known to the skilled chemist. For example, USP <616> method I may be used.

[2] = Comparative intrinsic dissolution; type: physicochemical; conditions: 0.01M pH 6.8 phosphate buffer containing 0.25% w/v SDS, 37° C., 50 rpm
Text: The following data illustrates the dissolution of the crystalline form of dolutegravir sodium disclosed in WO2010068253 (i.e. not the hydrate), compared to crystalline Form 1A of the present invention (i.e. crystalline Form 1A of dolutegravir sodium).
Dissolution medium: 0.01M pH 6.8 phosphate buffer containing 0.25% w/v sodium dodecyl sulfate (SDS)
FIG. 5 is a graphical comparison of the intrinsic dissolution of the solid crystalline Form 1A of dolutegravir sodium of the present invention and the crystalline form of dolutegravir sodium disclosed in WO2010068253. The solid line represents the dissolution of solid crystalline Form 1A of dolutegravir sodium of the present invention, with the dotted line representing the dissolution of the crystalline form of dolutegravir sodium disclosed in WO2010068253.

SMILES | tapped density [1] | % Release ([2]; 5 minutes) | % Release ([2]; 15 minutes) | % Release ([2]; 30 minutes) | % Release ([2]; 60 minutes) | % Release ([2]; 120 minutes) | % Release ([2]; 240 minutes) | % Release ([2]; 360 minutes) | % Release ([2]; 480 minutes) | % Release ([2]; 600 minutes) | % Release ([2]; 720 minutes) | bulk density [1]
C[C@@H]1CCO[C@H]2Cn3cc(C(=O)NCc4ccc(F)cc4F)c(=O)c([O-])c3C(=O)N12.[Na+] [Form 1A, sodium (4R,12aS)-9-{[(2,4,-difluorophenyl)methyl]carbamoyl}-4-methyl-6,8-dioxo-3,4,6,8,12,12a-hexahydro-2H-pyrido[1′,2′:4,5]pyrazino[2,1-b][1,3]oxazin-7-olate] | 0.7 to 0.8 g/mL | 26% | 45% | 73% | 66% | 79% | 82% | 81% | 85% | 86% | 82% | 
C[C@@H]1CCO[C@H]2Cn3cc(C(=O)NCc4ccc(F)cc4F)c(=O)c([O-])c3C(=O)N12.[Na+] [crystalline form of dolutegravir sodium disclosed in WO20100] [sodium (4R,12aS)-9-{[(2,4,-difluorophenyl)methyl]carbamoyl}-4-methyl-6,8-dioxo-3,4,6,8,12,12a-hexahydro-2H-pyrido[1′,2′:4,5]pyrazino[2,1-b][1,3]oxazin-7-olate] |  | 5% | 13% | 20% | 56% | 68% | 74% | 72% | 73% | 73% | 74% | 0.2 to 0.3 g/mL
